The record followed here is ChEMBL document CHEMBL1201862, “PubChem BioAssay data set” (2004).

Activity calls are given as the source filed them. Rule as the data show it, for most assays here: actives have a measured EC50 and inactives only a lower limit.

For one assay, the target named is T1, Cytochrome P450 1A2 (Homo sapiens, UniProt P05177).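 Also: PubChem cytochrome P450 panel assay, CYP1A2 panel member.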
T1 sequence (P05177 whole entry): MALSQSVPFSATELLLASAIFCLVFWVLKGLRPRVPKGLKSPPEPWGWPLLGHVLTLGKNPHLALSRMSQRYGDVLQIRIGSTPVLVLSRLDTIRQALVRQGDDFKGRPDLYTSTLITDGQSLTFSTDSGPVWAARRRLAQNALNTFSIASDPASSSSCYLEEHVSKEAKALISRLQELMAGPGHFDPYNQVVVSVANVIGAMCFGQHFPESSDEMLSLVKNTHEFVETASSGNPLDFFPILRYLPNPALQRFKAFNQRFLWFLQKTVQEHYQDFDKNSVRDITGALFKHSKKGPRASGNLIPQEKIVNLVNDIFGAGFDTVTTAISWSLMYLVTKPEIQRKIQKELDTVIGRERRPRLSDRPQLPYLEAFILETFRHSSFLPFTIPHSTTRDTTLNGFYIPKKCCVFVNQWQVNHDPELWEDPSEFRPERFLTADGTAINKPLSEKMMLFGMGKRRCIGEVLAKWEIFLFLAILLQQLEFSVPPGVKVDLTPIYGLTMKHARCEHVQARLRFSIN

A further assay deals with Cytochrome P450 2D6 (Homo sapiens, UniProt P10635).
The target of the next assay is Cytochrome P450 2C9 (Homo sapiens, UniProt P11712).
Assay [1] in a line: luciferase reporter signal suppression in cells – H4 neuroglioma cells, luminescence, dose response (AID 1990). The assay is classed as functional, cell-based.
The nature of assay [2]: alpha-synuclein stem-loop luciferase translation blockers – H4 neuroglioma cells, luminescence, confirmation (AID 1988). The assay is classed as functional, cell-based.
Assay [3] can be described thus: Luminescence Cell-Based Dose Response HTS to Identify Inhibitors of 5'UTR Stem-Loop Driven Prion Protein mRNA Translation in H4 Neuroglioblastoma Cells. [Related pubchem assays: 1827 (Project Summary), 1813 (Primary HTS)]. The assay is classed as functional.
A further assay deals with Streptococcus. Description: GAS UMAA2166 growth inhibition – luminescence, BacTiterGlo, counter-screen for streptokinase expression inhibitor project, dose response (AID 1915).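 Also: potency for reduction of bacterial viability or growth.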 In kind it is functional, organism-based. Background: A counterscreen serves to expose hits that act by an unwanted route or on another target.
For assay [4], the system named is Streptococcus sp. 'group A'. Briefly: Streptococcus pyogenes SK(-)GAS viability under kanamycin – luminescence, BacTiterGlo, confirmation, counter-screen for streptokinase expression inhibitor project, dose response (AID 1900). The assay is classed as functional, organism-based.
The target in another assay is T2, Streptokinase A (Streptococcus pyogenes serotype M1, UniProt P10520).
T2 sequence (P10520 whole entry): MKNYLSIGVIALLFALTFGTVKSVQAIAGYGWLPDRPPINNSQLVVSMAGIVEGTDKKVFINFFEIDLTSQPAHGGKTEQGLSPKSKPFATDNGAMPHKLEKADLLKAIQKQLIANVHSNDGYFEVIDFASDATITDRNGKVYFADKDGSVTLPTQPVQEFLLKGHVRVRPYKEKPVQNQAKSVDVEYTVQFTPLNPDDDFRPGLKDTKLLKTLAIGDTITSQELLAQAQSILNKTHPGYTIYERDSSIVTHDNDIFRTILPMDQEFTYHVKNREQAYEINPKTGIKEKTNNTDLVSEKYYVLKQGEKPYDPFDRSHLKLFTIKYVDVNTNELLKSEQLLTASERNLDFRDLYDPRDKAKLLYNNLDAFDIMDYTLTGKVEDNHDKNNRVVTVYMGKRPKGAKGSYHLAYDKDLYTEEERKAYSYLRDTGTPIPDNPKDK
Description: viability-normalized secreted streptokinase activity reduction – plasminogen activation absorbance, OD405, dose response (AID 1914).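 Also: secreted streptokinase activity via plasminogen activation per viability signal from cell pellet.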 In kind it is functional, Streptococcus pyogenes M1 GAS.

A short description of assay [5]: NIH3T3 cell viability loss – ATP luminescence, mouse fibroblasts, counter-screen, dose response (AID 2010).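 Also: cells exposed to compound for about 90 hours before reading.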 The assay is classed as functional, cell-based.
A short description of assay [6]: Trypanosoma cruzi growth suppression in host cells – NIH3T3 host cells, beta-gal luminescence, confirmation (AID 2044).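 Also: intracellular parasites grown in NIH/3T3 mouse fibroblasts as host cells; luminescent beta-galactosidase reporter signal from transgenic T. cruzi replicating inside host cells; inhibitors lower the luminescence signal.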 The assay is classed as functional, cell-based.
For another assay, the system named is INS1. Description: INS-1E survival protection against cytokine death – cell-based, luminescence, retest, dose response (AID 449756).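 Also: cell death triggered by IL-1 beta plus TNF-alpha plus IFN-gamma mixture; protective hits raise ATP signal compared with cytokine alone wells.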 The assay is classed as functional. The settings on record: Rattus norvegicus.
Assay [7] addresses T3, Heat shock factor protein 1 (Mus musculus, UniProt P38532).
T3 sequence (P38532 whole entry): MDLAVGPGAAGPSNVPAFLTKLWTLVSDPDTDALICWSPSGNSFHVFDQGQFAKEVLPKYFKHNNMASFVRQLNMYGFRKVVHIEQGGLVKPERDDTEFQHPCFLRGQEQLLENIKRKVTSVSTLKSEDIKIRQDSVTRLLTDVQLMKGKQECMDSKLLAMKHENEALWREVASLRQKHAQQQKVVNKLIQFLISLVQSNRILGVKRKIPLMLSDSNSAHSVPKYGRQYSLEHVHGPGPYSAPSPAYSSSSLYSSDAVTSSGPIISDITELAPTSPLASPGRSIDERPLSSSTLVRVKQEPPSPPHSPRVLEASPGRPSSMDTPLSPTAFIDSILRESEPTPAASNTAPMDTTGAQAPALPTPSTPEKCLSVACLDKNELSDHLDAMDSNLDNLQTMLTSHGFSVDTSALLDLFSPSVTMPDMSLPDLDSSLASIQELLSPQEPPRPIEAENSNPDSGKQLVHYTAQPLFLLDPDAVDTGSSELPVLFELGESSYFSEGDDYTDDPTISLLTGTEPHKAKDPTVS
Briefly: enhancement of HSF1-driven luciferase signal – cell-based, NIH3T3, luminescence, dose retest, confirmation (AID 435004).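 Also: stress induced by proteasome inhibitor MG132 added 30 min after compound; luciferase reporter driven by HSF1 response element in NIH3T3 cells; actives raise luminescence as potentiators of the MG132 stress response.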 The assay is classed as functional.

The next assay concerns the target Paired box protein Pax-8 (Homo sapiens, UniProt Q06710). Briefly: PAX8 transcriptional activity inhibition in RMG-I – RMG-I cells, luciferase, cherry-pick, dose response (AID 687027).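 Also: luciferase reporter driven by Pax8 target thyroperoxidase promoter measured by SteadyGlo luminescence.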 The assay is classed as functional, cell-based.

Cytochrome P450 2C9, sequence (P11712 whole entry): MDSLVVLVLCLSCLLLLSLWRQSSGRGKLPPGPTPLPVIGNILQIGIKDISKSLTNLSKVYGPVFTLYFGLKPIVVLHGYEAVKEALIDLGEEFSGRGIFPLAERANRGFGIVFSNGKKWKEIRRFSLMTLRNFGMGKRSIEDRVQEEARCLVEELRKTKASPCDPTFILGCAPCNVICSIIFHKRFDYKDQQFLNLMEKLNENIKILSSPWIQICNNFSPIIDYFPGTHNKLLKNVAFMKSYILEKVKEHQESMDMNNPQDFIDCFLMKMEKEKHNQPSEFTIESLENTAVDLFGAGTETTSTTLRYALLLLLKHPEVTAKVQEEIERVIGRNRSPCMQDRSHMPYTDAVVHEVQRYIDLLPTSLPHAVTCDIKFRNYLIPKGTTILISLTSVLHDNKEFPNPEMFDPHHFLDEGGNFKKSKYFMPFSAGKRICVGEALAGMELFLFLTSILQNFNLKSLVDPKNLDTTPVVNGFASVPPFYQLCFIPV
Cytochrome P450 2D6, sequence (P10635 whole entry): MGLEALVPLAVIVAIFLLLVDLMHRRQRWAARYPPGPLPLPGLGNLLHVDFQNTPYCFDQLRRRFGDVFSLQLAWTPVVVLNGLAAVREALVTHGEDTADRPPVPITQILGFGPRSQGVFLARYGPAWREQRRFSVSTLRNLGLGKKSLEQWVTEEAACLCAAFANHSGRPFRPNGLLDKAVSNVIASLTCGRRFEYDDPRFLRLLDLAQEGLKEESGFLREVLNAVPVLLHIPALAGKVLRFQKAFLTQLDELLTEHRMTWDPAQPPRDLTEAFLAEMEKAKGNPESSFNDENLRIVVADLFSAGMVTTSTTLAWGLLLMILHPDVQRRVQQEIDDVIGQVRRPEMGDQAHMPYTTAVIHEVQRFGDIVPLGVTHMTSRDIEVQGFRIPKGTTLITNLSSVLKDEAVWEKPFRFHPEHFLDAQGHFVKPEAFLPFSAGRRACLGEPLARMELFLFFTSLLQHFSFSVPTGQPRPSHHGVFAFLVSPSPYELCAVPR
Paired box protein Pax-8, sequence (Q06710 whole entry): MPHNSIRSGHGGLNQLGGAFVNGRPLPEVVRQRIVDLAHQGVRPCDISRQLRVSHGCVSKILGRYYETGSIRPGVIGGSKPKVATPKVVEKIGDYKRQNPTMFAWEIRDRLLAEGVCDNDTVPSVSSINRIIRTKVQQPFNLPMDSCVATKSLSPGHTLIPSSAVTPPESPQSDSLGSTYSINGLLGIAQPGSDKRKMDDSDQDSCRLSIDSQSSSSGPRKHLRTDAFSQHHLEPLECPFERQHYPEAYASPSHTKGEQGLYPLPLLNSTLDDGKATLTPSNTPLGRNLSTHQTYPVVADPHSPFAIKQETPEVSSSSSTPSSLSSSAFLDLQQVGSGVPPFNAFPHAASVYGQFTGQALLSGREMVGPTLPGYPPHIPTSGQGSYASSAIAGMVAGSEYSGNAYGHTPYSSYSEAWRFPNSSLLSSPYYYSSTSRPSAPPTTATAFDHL

Consider `Cc1ccc(Oc2nnc(-c3ccccc3)cc2C#N)cc1`, for which, on Cytochrome P450 1A2, the concentration at half-maximal activity (AC50) (commonly the midpoint of the concentration-response curve, whichever way the signal moves) was 2.51 µM (inconclusive).

Take `O=C(NCCCN1CCN(C2CCCCC2)CC1)Nc1ccccc1C(F)(F)F`: the AC50 on Cytochrome P450 1A2 was 25.1 µM (inconclusive).

As for `CCNc1ncc2nc(-c3ccc(F)cc3)c(=O)n(CCC#N)c2n1`, the AC50 on Cytochrome P450 2D6 is 0.1 µM (inconclusive); on Cytochrome P450 1A2, 0.631 µM (inconclusive).

In the case of `CCC/C=C(\CCC)C(NC(=O)c1cccs1)c1ccc(C(F)(F)F)cc1` (centres undefined), the concentration at half-maximal activity (AC50) is 0.501 µM (inconclusive) on Cytochrome P450 2C9 and 3.16 µM (inconclusive) on Cytochrome P450 1A2.

For `COc1ccc(-c2noc(CSc3nnc(CCc4ccccc4)n3-c3ccccc3)n2)cc1OC`, the values for the EC50 in assay [1], in assay [2] and in assay [3] were 14 µM (active), > 120 µM (not active) and 14.5 µM (active), respectively.

With `CCN(CC)c1ccc(NC(=O)COc2ccc(C#N)cc2)cc1S(=O)(=O)Nc1ccc(OC)cc1`, the EC50 (commonly the concentration that produces a half-maximal response) in assay [1] is 20.6 µM (active); in assay [2], 92.7 µM (active); in assay [3] it was > 120 µM (not active).

For `Oc1c(Br)cc(Br)cc1CNc1ccc(F)cc1`, the figures for the EC50 (with Streptococcus; in [4]; on Streptokinase A) were > 150 µM (not active), 20.4 µM (active) and 84.4 µM (active), respectively.

Turning to `Nc1sc(-c2ccccc2)n[n+]1Cc1cccc2cccnc12`, the EC50 in assay [1] was > 120 µM (not active); in assay [5], > 60 µM (not active); in assay [2] it was > 120 µM (not active); in assay [6], 2.77 µM (active); in assay [3], > 120 µM (not active).

For `CC(=O)c1c(O)c(C)c(-c2ccccc2)n(-c2ccccc2)c1=O`, the concentration at half-maximal activity (AC50) at Cytochrome P450 1A2 is 6.31 µM (inconclusive).

In the case of `Cc1cc(=O)n2nc(N3CCCC(C(=O)N4CCc5ccccc54)C3)sc2n1` (centres undefined), the figures for the EC50 in [1], in assay [2] and in assay [3] were 22.1 µM (active), 34.1 µM (active) and > 120 µM (not active), respectively.

Take `COC(=O)c1cn(-c2ccc(Cl)cc2)c(=O)c2ccccc12`: the EC50 in [1] is 16.2 µM (active); in assay [2], > 120 µM (not active); in assay [3], > 60 µM (not active).

For `COc1ccc(/C(O)=C/C2=NCCc3cc(OC)c(OC)cc32)cc1OC`, the figures for the EC50 in [1], in [2] and in assay [3] were > 120 µM (not active), 84.3 µM (active) and > 120 µM (not active), respectively.

For `c1ccc(-c2nnc(CSc3ccc4c(c3)OCCO4)o2)cc1`, in the assay on INS1, the AC50 is > 260 µM (inactive).

`COC(=O)c1cc2ccsc2n1CC(=O)Nc1cc(Cl)ccc1OC`: the EC50 is 18.8 µM (active) in assay [1], 10.9 µM (active) in assay [2] and > 120 µM (not active) in assay [3].

As to `O=C(CSc1nnc(CNC(=O)c2c(F)cccc2F)o1)NCc1ccccc1`, the EC50 (with Streptococcus; in assay [4]; on Streptokinase A) was > 150 µM (not active) each time.

Regarding `COc1ccc(CNC(=O)C2CCN(c3nc(OC)nc(OC)n3)CC2)cc1`, the EC50 in [1], in assay [2] and in assay [3] was > 120 µM (not active) throughout.

Take `COc1ccc(-c2oc3cccnc3c2C#CC2(O)CCCCC2)cc1`: the EC50 in the assay on Streptococcus is 11.1 µM (active); in assay [4], 7.18 µM (active); at Streptokinase A, > 150 µM (not active).

With `O=C(Nc1nnc(SCc2ccccc2Cl)s1)C1COc2ccccc2O1` (centres undefined), the figures for the EC50 (in the assay with Streptococcus; in assay [4]; on Streptokinase A) were 16.7 µM (active), 4.52 µM (active) and 7.36 µM (active), respectively.

As to `CC1CCc2c(sc3nc(C4CC4)nc(N4CCN(C(=O)c5ccco5)CC4)c23)C1` (centres undefined), the EC50 in the assay with Streptococcus was 9.93 µM (active); in assay [4], 3.48 µM (active); on Streptokinase A, 3.24 µM (active). Also, the AC50 with INS1 is 4.18 µM (active).

With `Cc1nnc(SCC2=C(C(=O)O)N3C(=O)C(NC(=O)c4cccc(F)c4F)C3SC2)s1` (centres undefined), the concentration for a half-maximal effect (EC50) with Streptococcus was 1.01 µM (active); in assay [4] it was 0.377 µM (active); at Streptokinase A it was > 150 µM (not active); in assay [7], 246 µM (active).

Regarding `Clc1ccc(SCc2cc(Cl)nc(-c3ccccc3)n2)cc1`, the EC50 is > 150 µM (not active) in the assay on Streptococcus, > 150 µM (not active) in assay [4] and 17 µM (active) on Streptokinase A.

On to `O=c1c(CCc2ccccc2)nc2cnc(N3CCNCC3)nc2n1-c1ccccc1`, for which the AC50 at Cytochrome P450 1A2 was 15.8 µM (inconclusive).

Turning to `O=C(Oc1ccccc1N1C(=O)C2CCCCC2C1=O)c1ccccc1` (centres undefined), the values for the AC50 at Cytochrome P450 2C9 and at Cytochrome P450 1A2 were 11.2 µM (inconclusive) and 15.8 µM (inconclusive), respectively.

Turning to `O=C(Nc1cc(Sc2ccccn2)cc([N+](=O)[O-])c1)c1ccc(Cl)cc1`, in the assay with INS1, the AC50 is 5.46 µM (active).

Regarding `OC(COCc1ccccc1)Cn1cnc2ccccc21` (centres undefined), at Cytochrome P450 1A2, the AC50 is 15.8 µM (inconclusive).

`Oc1ccc(C[C@H]2CNC(=S)N2CC2CCCN2C[C@H](Cc2ccc(O)cc2)N2C[C@H](Cc3ccc(O)cc3)N(CC3CCCCC3)C2=S)cc1` (some centres undefined): at Paired box protein Pax-8, the AC50 is 6.44 µM (active).

For `COc1ccc(-n2cnnc2)cc1`, the AC50 at Cytochrome P450 2C9 was 0.0282 µM (inconclusive); at Cytochrome P450 1A2, 14.1 µM (inconclusive).

For the compound `Cc1nc2ccccc2nc1-c1ccc(/N=[N+](\[O-])c2ccc(-c3nc4ccccc4nc3C)cc2)cc1`, on Cytochrome P450 1A2, the AC50 was 6.31 µM (inconclusive).

Take `COc1cccc(S(=O)(=O)N2CC[C@H]3[C@@H](CO)N(C)c4ccc(C#Cc5ccc(F)cc5)cc4[C@H]32)c1`: the AC50 on Paired box protein Pax-8 was 6.92 µM (active).

Consider `O=C(CNC(=O)c1ccc(F)cc1)N/N=C/c1cc(Br)ccc1OCc1ccccc1`, for which the values for the EC50 (in the assay on Streptococcus; in [4]; at Streptokinase A) were 32.6 µM (active), 10.3 µM (active) and > 150 µM (not active), respectively.

For the compound `O=C(Cc1ccccc1)N/N=C/c1ccccn1`, the EC50 (in the assay with Streptococcus; in [4]; at Streptokinase A) was > 150 µM (not active) throughout.

As for `O=C(NCCCn1ccnc1)c1ccc(-c2ccccc2)cc1`, in the assay with INS1, the AC50 was 7.41 µM (active).

As to `Cc1cc(-c2ccccc2)nnc1NCCN1CCOCC1` [MINAPRINE], the AC50 at Cytochrome P450 2D6 is 7.94 µM (inconclusive); on Cytochrome P450 1A2 it was 10 µM (inconclusive).

Take `Clc1cc(I)cc(Cl)c1N=C1NCCN1` [PI-CLONIDINE]: at Cytochrome P450 1A2, the AC50 is 15.8 µM (inconclusive).

Take `N[C@@H]1C[C@H]1c1ccccc1.N[C@H]1C[C@@H]1c1ccccc1` [TRANYLCYPROMINE]: the AC50 is 31.6 µM (inconclusive) at Cytochrome P450 2D6 and 39.8 µM (inconclusive) on Cytochrome P450 2C9.
